Test results taken from ChEMBL document CHEMBL1641586, “Stereospecific synthesis and structure-activity relationships of unsymmetrical 4,4-diphenylbut-3-enyl derivatives of nipecotic acid as GAT-1 inhibitors” (Bioorg Med Chem Lett, 2011).

Target: T1, Sodium- and chloride-dependent GABA transporter 2 (Homo sapiens, UniProt Q9NSD5)
T1 sequence (Q9NSD5 whole entry): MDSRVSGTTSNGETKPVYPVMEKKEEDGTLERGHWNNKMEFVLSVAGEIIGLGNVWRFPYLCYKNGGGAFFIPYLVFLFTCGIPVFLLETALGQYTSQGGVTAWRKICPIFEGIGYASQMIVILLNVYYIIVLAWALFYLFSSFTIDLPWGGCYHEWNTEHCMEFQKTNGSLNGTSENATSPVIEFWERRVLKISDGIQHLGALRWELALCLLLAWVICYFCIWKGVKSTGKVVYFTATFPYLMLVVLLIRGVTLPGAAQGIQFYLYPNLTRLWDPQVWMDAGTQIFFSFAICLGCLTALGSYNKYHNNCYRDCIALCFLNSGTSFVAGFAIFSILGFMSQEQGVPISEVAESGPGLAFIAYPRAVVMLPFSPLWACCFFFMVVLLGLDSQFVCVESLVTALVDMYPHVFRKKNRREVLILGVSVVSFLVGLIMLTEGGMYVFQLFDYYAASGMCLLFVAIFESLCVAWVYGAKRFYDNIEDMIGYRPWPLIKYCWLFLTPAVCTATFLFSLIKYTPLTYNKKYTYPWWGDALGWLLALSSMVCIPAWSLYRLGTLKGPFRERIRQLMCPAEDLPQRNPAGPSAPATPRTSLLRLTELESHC
Assay: Inhibition of GAT2

Compound	IC50 [nM]
Cc1ccccc1/C(=C\CCN1CCC[C@@H](C(=O)O)C1)c1ccccc1F	> 100000

Target: Sodium- and chloride-dependent GABA transporter 1 (Homo sapiens, UniProt P30531)
Sequence (P30531 whole entry): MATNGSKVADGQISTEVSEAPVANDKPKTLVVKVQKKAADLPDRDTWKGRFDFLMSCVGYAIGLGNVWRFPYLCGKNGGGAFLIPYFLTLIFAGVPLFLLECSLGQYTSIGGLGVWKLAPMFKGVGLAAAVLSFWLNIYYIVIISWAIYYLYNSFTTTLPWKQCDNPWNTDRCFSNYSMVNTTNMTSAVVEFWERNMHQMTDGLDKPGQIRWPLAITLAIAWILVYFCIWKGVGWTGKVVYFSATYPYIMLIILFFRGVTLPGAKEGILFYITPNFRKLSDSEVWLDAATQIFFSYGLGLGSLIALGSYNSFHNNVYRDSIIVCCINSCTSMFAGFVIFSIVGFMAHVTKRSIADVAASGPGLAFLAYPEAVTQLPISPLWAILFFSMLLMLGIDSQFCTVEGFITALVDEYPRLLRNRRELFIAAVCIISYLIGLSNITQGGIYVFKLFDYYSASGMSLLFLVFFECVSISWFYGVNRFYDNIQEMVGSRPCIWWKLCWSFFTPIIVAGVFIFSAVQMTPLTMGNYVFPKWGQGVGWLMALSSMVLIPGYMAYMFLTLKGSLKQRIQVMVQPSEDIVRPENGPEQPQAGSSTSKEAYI
Assay: Displacement of [3H]Tiagabine from human recombinant GAT1 expressed in HEK293 cells by equilibrium binding assay
Assay type: cell-based

Compound	Ki [nM]
Cc1cc(F)ccc1/C(=C\CCN1CCC[C@@H](C(=O)O)C1)c1ccccc1	33.9
O=C(O)[C@@H]1CCCN(CC/C=C(/c2ccccc2)c2ccccc2F)C1	69.2
Cc1cc(F)ccc1/C(=C\CCN1CCC[C@@H](C(=O)O)C1)c1ccccc1F	19.1
Cc1ccccc1/C(=C\CCN1CCC[C@@H](C(=O)O)C1)c1ccccc1	20.4
O=C(O)[C@@H]1CCCN(CC/C=C(/c2ccccc2F)c2ccccc2Cl)C1	18.2
Cc1ccc(C(=CCCN2CC[C@H]3[C@@H](C2)[C@@H]3C(=O)O)c2ccc(C)s2)s1	> 10000
O=C(O)[C@@H]1CCCN(CC/C=C(\c2ccccc2F)c2ccccc2Cl)C1	158
COc1ccccc1/C(=C/CCN1CCC[C@@H](C(=O)O)C1)c1ccccc1C	70.8
Cc1ccc(C(=CCCN2CCOC(C(=O)O)C2)c2ccc(C)s2)s1 (configuration not stated)	> 10000
CCc1ccccc1/C(=C\CCN1CCC[C@@H](C(=O)O)C1)c1ccccc1F	38
Cc1ccc(C(=CCCN(C)[C@H]2CCC[C@@H]2C(=O)O)c2ccc(C)s2)s1	> 10000
O=C(O)[C@@H]1CCCN(CC/C=C(/c2ccccc2)c2ccccc2Cl)C1	40.7
Cc1cccc(C)c1/C(=C\CCN1CCC[C@@H](C(=O)O)C1)c1ccccc1	77.6
Cc1cc(F)ccc1/C(=C\CCN1CCC[C@@H](C(=O)O)C1)c1ccccc1C(F)(F)F	38.9
Cc1cc(F)ccc1/C(=C/CCN1CCC[C@@H](C(=O)O)C1)c1ccccc1	380
CCc1ccccc1/C(=C\CCN1CCC[C@@H](C(=O)O)C1)c1ccccc1	29.5
CCc1ccccc1/C(=C/CCN1CCC[C@@H](C(=O)O)C1)c1ccccc1F	89.1
O=C(O)[C@@H]1CCCN(CCC=C(c2ccccc2F)c2ccccc2F)C1	46.8
Cc1ccccc1/C(=C/CCN1CCC[C@@H](C(=O)O)C1)c1ccccc1F	72.4
Cc1ccccc1/C(=C\CCN1CCC[C@@H](C(=O)O)C1)c1ccccc1F	14.8
Cc1ccc(C(=CCCN2C[C@@H]3[C@H](C2)[C@@H]3C(=O)O)c2ccc(C)s2)s1	> 10000
Cc1ccc(C(=CCCN(C)[C@H]2CCCC[C@@H]2C(=O)O)c2ccc(C)s2)s1	> 10000
Cc1ccccc1/C(=C\CCN1CCC[C@@H](C(=O)O)C1)c1ccccc1Cl	61.7
COc1ccccc1/C(=C\CCN1CCC[C@@H](C(=O)O)C1)c1ccccc1	56.2
O=C(O)[C@@H]1CCCN(CC/C=C(/c2ccccc2)c2c(F)cccc2F)C1	331

Compound	Ki [nM]
CCc1ccccc1/C(=C/CCN1CCC[C@@H](C(=O)O)C1)c1ccccc1	102
Cc1ccc(C(=CCCN2CC[C@@H]3[C@H](C2)[C@@H]3C(=O)O)c2ccc(C)s2)s1	> 10000
O=C(O)[C@@H]1CCCN(CC/C=C(/c2ccccc2F)c2ccccc2OC(F)(F)F)C1	52.5
O=C(O)[C@@H]1CCCN(CC/C=C(\c2ccccc2)c2ccccc2F)C1	372
O=C(O)[C@@H]1CCCN(CC/C=C(/c2ccccc2)c2ccccc2C(F)(F)F)C1	93.3
Cc1ccccc1C(=CCCN1CCC[C@@H](C(=O)O)C1)c1ccccc1C	41.7
O=C(O)[C@@H]1CCCN(CC/C=C(\c2ccccc2)c2ccccc2Cl)C1	166
O=C(O)[C@@H]1CCCN(CC/C=C(\c2ccccc2F)c2ccccc2C(F)(F)F)C1	355
O=C(O)[C@@H]1CCCN(CC/C=C(/c2ccccc2)c2ccccc2-c2ccccc2)C1	1070
O=C(O)[C@@H]1CCCN(CC/C=C(/c2ccccc2)c2ccccc2Br)C1	28.8
O=C(O)[C@@H]1CCCN(CC/C=C(/c2ccccc2)c2ccccc2OC(F)(F)F)C1	58.9
Cc1ccc(C(=CCCN2CCCC(F)(C(=O)O)C2)c2ccc(C)s2)s1 (configuration not stated)	138
Cc1ccccc1/C(=C/CCN1CCC[C@@H](C(=O)O)C1)c1ccccc1	93.3
O=C(O)[C@@H]1CCCN(CC/C=C(/c2ccccc2F)c2ccccc2Br)C1	21.9
COc1ccccc1/C(=C\CCN1CCC[C@@H](C(=O)O)C1)c1ccccc1F	53.7
O=C(O)[C@@H]1CCCN(CC/C=C(\c2ccccc2)c2ccccc2C(F)(F)F)C1	1910
O=C(O)[C@@H]1CCCN(CC/C=C(\c2ccccc2)c2ccccc2Br)C1	200
CC(=O)[C@@H]1CC[C@H]2CC[C@@H]1N2CCC=C(c1ccccc1)c1ccccc1	2750
O=C(O)[C@@H]1CCCN(CC/C=C(\c2ccccc2)c2ccccc2OC(F)(F)F)C1	646
O=C(O)[C@@H]1CCCN(CC/C=C(\c2ccccc2)c2c(F)cccc2F)C1	692
O=C(O)C1(F)CCCN(CCC=C(c2ccccc2)c2ccccc2)C1 (configuration not stated)	832
Cc1ccc(C(=CCCN2C[C@@H]3[C@H](C2)[C@H]3C(=O)O)c2ccc(C)s2)s1	> 10000
O=C(O)[C@@H]1CCCN(CC/C=C(\c2ccccc2)c2ccccc2-c2ccccc2)C1	676
COc1ccccc1/C(=C/CCN1CCC[C@@H](C(=O)O)C1)c1ccccc1	372
Cc1ccccc1/C(=C\CCN1CCC[C@@H](C(=O)O)C1)c1ccccc1C(F)(F)F	380

Target: Cytochrome P450 3A4 (Homo sapiens, UniProt P08684)
Sequence (P08684 whole entry): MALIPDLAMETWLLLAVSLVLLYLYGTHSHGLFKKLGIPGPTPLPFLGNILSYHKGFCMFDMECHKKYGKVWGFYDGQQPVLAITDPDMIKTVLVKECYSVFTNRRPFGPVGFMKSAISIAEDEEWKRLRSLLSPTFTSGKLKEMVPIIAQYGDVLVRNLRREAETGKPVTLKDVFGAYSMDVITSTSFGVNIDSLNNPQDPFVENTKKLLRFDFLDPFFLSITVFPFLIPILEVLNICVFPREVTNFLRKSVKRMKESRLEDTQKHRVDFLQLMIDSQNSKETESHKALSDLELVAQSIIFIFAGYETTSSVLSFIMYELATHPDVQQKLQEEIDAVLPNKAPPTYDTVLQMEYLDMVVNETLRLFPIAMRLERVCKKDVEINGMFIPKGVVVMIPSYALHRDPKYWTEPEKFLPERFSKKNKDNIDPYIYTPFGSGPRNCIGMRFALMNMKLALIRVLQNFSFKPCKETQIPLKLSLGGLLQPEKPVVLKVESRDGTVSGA
Assay: Inhibition of CYP3A4
Assay type: ADME

Compound	IC50 [nM]
Cc1ccccc1/C(=C\CCN1CCC[C@@H](C(=O)O)C1)c1ccccc1F	> 10000

Target: T2, Sodium- and chloride-dependent betaine transporter (Homo sapiens, UniProt P48065)
T2 sequence (P48065 whole entry): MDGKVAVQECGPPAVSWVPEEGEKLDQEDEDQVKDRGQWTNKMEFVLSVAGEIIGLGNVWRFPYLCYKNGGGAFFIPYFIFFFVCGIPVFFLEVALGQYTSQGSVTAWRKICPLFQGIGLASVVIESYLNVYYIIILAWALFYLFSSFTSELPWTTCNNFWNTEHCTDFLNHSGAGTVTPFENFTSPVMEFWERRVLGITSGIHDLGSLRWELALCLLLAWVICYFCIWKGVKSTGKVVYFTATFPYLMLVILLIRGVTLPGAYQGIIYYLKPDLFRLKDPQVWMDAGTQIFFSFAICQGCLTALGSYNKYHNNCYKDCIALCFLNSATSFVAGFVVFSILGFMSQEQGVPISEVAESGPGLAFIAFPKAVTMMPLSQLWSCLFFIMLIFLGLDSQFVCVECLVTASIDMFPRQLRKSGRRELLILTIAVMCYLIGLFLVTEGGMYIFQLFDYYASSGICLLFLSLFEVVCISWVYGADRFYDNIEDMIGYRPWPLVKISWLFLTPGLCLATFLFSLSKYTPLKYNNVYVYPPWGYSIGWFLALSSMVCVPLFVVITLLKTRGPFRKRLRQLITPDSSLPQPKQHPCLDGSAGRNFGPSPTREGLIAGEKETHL
Assay: Inhibition of BGT1

Compound	IC50 [nM]
Cc1ccccc1/C(=C\CCN1CCC[C@@H](C(=O)O)C1)c1ccccc1F	> 100000

Target: Cytochrome P450 2C19 (Homo sapiens, UniProt P33261)
Sequence (P33261 whole entry): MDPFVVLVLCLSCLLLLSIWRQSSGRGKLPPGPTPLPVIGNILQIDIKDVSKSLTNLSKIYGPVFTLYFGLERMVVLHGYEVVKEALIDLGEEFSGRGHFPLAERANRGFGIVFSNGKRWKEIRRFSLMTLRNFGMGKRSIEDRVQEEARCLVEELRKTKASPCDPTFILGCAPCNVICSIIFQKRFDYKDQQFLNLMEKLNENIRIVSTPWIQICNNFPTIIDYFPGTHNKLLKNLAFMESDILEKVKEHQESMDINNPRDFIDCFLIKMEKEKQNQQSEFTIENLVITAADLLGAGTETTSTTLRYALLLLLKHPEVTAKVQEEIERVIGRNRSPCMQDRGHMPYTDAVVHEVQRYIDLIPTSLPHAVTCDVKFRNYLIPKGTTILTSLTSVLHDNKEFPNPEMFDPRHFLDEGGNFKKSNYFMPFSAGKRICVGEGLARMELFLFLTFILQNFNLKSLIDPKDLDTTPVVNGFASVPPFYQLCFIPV
Assay: Inhibition of CYP2C19
Assay type: ADME

Compound	IC50 [nM]
Cc1ccccc1/C(=C\CCN1CCC[C@@H](C(=O)O)C1)c1ccccc1F	> 10000

Target: T3, Sodium- and chloride-dependent GABA transporter 3 (Homo sapiens, UniProt P48066)
T3 sequence (P48066 whole entry): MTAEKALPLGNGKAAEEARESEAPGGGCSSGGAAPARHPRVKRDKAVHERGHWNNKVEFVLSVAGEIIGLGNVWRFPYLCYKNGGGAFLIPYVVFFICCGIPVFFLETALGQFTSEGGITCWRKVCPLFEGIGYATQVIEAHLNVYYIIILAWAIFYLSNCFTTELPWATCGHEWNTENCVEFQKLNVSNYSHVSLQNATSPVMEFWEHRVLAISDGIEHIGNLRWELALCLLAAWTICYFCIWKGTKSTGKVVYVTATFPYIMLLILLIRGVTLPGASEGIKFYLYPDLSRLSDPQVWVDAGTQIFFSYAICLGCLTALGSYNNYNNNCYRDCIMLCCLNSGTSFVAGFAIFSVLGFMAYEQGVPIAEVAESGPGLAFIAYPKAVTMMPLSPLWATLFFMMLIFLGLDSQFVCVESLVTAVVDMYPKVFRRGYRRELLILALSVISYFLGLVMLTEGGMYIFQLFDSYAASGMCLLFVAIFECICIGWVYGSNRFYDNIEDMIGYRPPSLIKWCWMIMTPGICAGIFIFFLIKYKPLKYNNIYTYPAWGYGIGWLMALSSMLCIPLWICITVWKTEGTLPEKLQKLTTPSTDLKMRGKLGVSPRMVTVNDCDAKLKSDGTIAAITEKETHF
Assay: Inhibition of GAT3

Compound	IC50 [nM]
Cc1ccccc1/C(=C\CCN1CCC[C@@H](C(=O)O)C1)c1ccccc1F	> 100000

Target: Cytochrome P450 2C9 (Homo sapiens, UniProt P11712)
Sequence (P11712 whole entry): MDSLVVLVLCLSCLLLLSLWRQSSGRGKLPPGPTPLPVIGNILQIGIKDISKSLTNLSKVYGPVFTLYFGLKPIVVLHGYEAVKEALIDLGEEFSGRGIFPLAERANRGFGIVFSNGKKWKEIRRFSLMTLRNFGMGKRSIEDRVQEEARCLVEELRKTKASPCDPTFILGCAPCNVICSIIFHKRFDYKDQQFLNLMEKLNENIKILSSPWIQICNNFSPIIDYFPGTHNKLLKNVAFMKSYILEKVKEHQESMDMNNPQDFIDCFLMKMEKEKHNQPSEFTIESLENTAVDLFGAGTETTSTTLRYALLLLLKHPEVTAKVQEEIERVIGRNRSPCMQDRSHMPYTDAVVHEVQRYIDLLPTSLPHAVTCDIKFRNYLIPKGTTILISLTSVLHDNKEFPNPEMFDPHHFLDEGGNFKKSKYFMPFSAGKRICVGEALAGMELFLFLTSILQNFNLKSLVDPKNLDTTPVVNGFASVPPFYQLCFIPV
Assay: Inhibition of CYP2C9
Assay type: ADME

Compound	IC50 [nM]
Cc1ccccc1/C(=C\CCN1CCC[C@@H](C(=O)O)C1)c1ccccc1F	> 10000

Target: T4, Cytochrome P450 1A2 (Homo sapiens, UniProt P05177)
T4 sequence (P05177 whole entry): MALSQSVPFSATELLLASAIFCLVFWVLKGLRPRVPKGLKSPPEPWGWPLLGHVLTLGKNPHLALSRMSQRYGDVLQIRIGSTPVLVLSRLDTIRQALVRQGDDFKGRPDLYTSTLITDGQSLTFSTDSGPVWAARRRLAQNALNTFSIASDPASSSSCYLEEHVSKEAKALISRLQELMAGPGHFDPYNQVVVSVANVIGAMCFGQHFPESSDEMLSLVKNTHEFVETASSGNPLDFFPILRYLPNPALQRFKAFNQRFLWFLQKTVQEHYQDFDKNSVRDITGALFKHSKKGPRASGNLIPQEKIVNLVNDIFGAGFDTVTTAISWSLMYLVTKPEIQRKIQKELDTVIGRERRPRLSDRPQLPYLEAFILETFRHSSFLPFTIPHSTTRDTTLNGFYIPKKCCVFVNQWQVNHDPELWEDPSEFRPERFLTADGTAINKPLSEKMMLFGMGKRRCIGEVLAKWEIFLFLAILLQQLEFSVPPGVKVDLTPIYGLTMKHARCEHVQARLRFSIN
Assay: Inhibition of CYP1A2
Assay type: ADME

Compound	IC50 [nM]
Cc1ccccc1/C(=C\CCN1CCC[C@@H](C(=O)O)C1)c1ccccc1F	> 10000
